Reference: ChEMBL document CHEMBL1201862, “PubChem BioAssay data set” (2004)
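Where inhibition never reached the appropriate level, the endpoint shown equals the highest concentration tested. Otherwise, values were interpolated linearly from a five-concentration, 48-hour dose response in 96-well plates. The concentration for 50% growth inhibition is given as GI50.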 The source made the active and inactive calls. No stated cut-off is given here; in the data, active = GI50 up to about 1.1 µM and inactive = higher.

What was measured:
Assay in all cases: inhibition of tumour cell growth, NCI panel, 48 h
SNB-19 = tested on: SNB-19
MOLT-4 = tested on: MOLT-4
MCF7 = tested on: MCF7
EKVX = tested on: EKVX
COLO 205 = tested on: COLO 205
CAKI-1 = tested on: CAKI-1
HCT-15 = tested on: HCT-15
786-0 = tested on: 786-0
HCC 2998 = tested on: HCC 2998
LOX IMVI = tested on: LOX IMVI
SF-539 = tested on: SF-539
OVCAR-4 = tested on: OVCAR-4
IGROV-1 = tested on: IGROV-1
PC-3 = tested on: PC-3
SF-295 = tested on: SF-295
U-251 = tested on: U-251
HOP-92 = tested on: HOP-92
HOP-62 = tested on: HOP-62
HT-29 = tested on: HT-29
BT-549 = tested on: BT-549
SF-268 = tested on: SF-268
UACC-62 = tested on: UACC-62
SK-MEL-2 = tested on: SK-MEL-2
A498 = tested on: A498
SW-620 = tested on: SW-620
MDA-MB-435 = tested on: MDA-MB-435
SR = tested on: SR
SN12C = tested on: SN12C
T47D = tested on: T47D
UO-31 = tested on: UO-31
M14 = tested on: M14
TK-10 = tested on: TK-10
SK-OV-3 = tested on: SK-OV-3
MDA-MB-231 = tested on: MDA-MB-231
SNB-75 = tested on: SNB-75
NCI-H226 = tested on: NCI-H226
MDA-N = tested on: MDA-N
OVCAR-5 = tested on: OVCAR-5
A549 = tested on: A549
DU-145 = tested on: DU-145
OVCAR-8 = tested on: OVCAR-8
OVCAR-3 = tested on: OVCAR-3
Hs-578T = tested on: Hs-578T
NCI-H23 = tested on: NCI-H23
NCI-H522 = tested on: NCI-H522
HL-60 = tested on: HL-60
K562 = tested on: K562
SK-MEL-28 = tested on: SK-MEL-28
NCI-H460 = tested on: NCI-H460
ACHN = tested on: ACHN
HCT-116 = tested on: HCT-116
SK-MEL-5 = tested on: SK-MEL-5
NCI/ADR-RES = tested on: NCI/ADR-RES
UACC-257 = tested on: UACC-257
KM12 = tested on: KM12
RXF 393 = tested on: RXF 393
RPMI-8226 = tested on: RPMI-8226
Malme-3M = tested on: Malme-3M
CCRF-CEM = tested on: CCRF-CEM

**Q.** How did the GI50 (SNB-19) turn out when `COC(=O)c1c2c(cc3c1CC1(C3)Cc3cc4c(c(C(C)=O)c3C1)CCC4)C=CC2` (stereo not drawn) was run?
**A.** Its GI50 is > 31.6 µM (inactive).

**Q.** What about the GI50 (MOLT-4) of the same molecule?
**A.** The GI50 was > 31.6 µM (inactive).

**Q.** And the GI50 (MCF7)?
**A.** The GI50 was 22.2 µM (inactive).

**Q.** What about the GI50 (EKVX) of the same molecule?
**A.** Its GI50 is > 31.6 µM (inactive).

**Q.** What about the GI50 (COLO 205) of the same molecule?
**A.** Its GI50 is > 31.6 µM (inactive).

**Q.** And the GI50 (CAKI-1)?
**A.** Its GI50 is 44.2 µM (inactive).

**Q.** What about the GI50 (HCT-15) of the same molecule?
**A.** Its GI50 is 18.3 µM.

**Q.** And the GI50 (786-0)?
**A.** Its GI50 is > 31.6 µM (inactive).

**Q.** What about the GI50 (HCC 2998) of the same molecule?
**A.** Its GI50 is > 10 µM (inactive).

**Q.** What about the GI50 (LOX IMVI) of the same molecule?
**A.** Its GI50 is > 10 µM (inactive).

**Q.** What about the GI50 (SF-539) of the same molecule?
**A.** Its GI50 is > 31.6 µM (inactive).

**Q.** And the GI50 (OVCAR-4)?
**A.** The GI50 was 24.5 µM (inactive).

**Q.** What about the GI50 (IGROV-1) of the same molecule?
**A.** The GI50 was > 31.6 µM (inactive).

**Q.** What about the GI50 (PC-3) of the same molecule?
**A.** Its GI50 is > 31.6 µM (inactive).

**Q.** What about the GI50 (SF-295) of the same molecule?
**A.** Its GI50 is > 31.6 µM (inactive).

**Q.** What about the GI50 (U-251) of the same molecule?
**A.** The GI50 was > 31.6 µM (inactive).

**Q.** What about the GI50 (HOP-92) of the same molecule?
**A.** Its GI50 is > 31.6 µM (inactive).

**Q.** What about the GI50 (HOP-62) of the same molecule?
**A.** The GI50 was > 31.6 µM (inactive).

**Q.** And the GI50 (HT-29)?
**A.** The GI50 was 18.7 µM (inactive).

**Q.** And the GI50 (BT-549)?
**A.** The GI50 was > 31.6 µM (inactive).

**Q.** And the GI50 (SF-268)?
**A.** Its GI50 is > 31.6 µM (inactive).

**Q.** What about the GI50 (UACC-62) of the same molecule?
**A.** Its GI50 is 30.7 µM (inactive).

**Q.** What about the GI50 (SK-MEL-2) of the same molecule?
**A.** Its GI50 is > 31.6 µM (inactive).

**Q.** And the GI50 (A498)?
**A.** Its GI50 is > 31.6 µM (inactive).

**Q.** What about the GI50 (SW-620) of the same molecule?
**A.** Its GI50 is > 10 µM (inactive).

**Q.** What about the GI50 (MDA-MB-435) of the same molecule?
**A.** The GI50 was 30.5 µM (inactive).

**Q.** What about the GI50 (SR) of the same molecule?
**A.** The GI50 was 20.8 µM (inactive).

**Q.** What about the GI50 (SN12C) of the same molecule?
**A.** The GI50 was > 31.6 µM (inactive).

**Q.** What about the GI50 (T47D) of the same molecule?
**A.** Its GI50 is 5.69 µM (inactive).

**Q.** What about the GI50 (UO-31) of the same molecule?
**A.** The GI50 was 24.3 µM (inactive).

**Q.** And the GI50 (M14)?
**A.** Its GI50 is > 31.6 µM (inactive).

**Q.** What about the GI50 (TK-10) of the same molecule?
**A.** The GI50 was > 31.6 µM (inactive).

**Q.** What about the GI50 (SK-OV-3) of the same molecule?
**A.** The GI50 was > 10 µM (inactive).

**Q.** And the GI50 (MDA-MB-231)?
**A.** The GI50 was > 20.7 µM (inactive).

**Q.** And the GI50 (SNB-75)?
**A.** Its GI50 is 4.6 µM (inactive).

**Q.** And the GI50 (NCI-H226)?
**A.** The GI50 was > 31.6 µM (inactive).

**Q.** And the GI50 (MDA-N)?
**A.** Its GI50 is > 10 µM (inactive).

**Q.** What about the GI50 (OVCAR-5) of the same molecule?
**A.** Its GI50 is > 31.6 µM (inactive).

**Q.** What about the GI50 (A549) of the same molecule?
**A.** The GI50 was > 31.6 µM (inactive).

**Q.** What about the GI50 (DU-145) of the same molecule?
**A.** The GI50 was > 31.6 µM (inactive).

**Q.** What about the GI50 (OVCAR-8) of the same molecule?
**A.** Its GI50 is > 31.6 µM (inactive).

**Q.** And the GI50 (OVCAR-3)?
**A.** The GI50 was > 31.6 µM (inactive).

**Q.** And the GI50 (Hs-578T)?
**A.** The GI50 was > 31.6 µM (inactive).

**Q.** And the GI50 (NCI-H23)?
**A.** Its GI50 is > 31.6 µM (inactive).

**Q.** What about the GI50 (NCI-H522) of the same molecule?
**A.** Its GI50 is 27.6 µM (inactive).

**Q.** What about the GI50 (HL-60) of the same molecule?
**A.** Its GI50 is 16.7 µM (inactive).

**Q.** What about the GI50 (K562) of the same molecule?
**A.** Its GI50 is 27 µM (inactive).

**Q.** And the GI50 (SK-MEL-28)?
**A.** Its GI50 is 29.4 µM (inactive).

**Q.** What about the GI50 (NCI-H460) of the same molecule?
**A.** Its GI50 is > 31.6 µM (inactive).

**Q.** And the GI50 (ACHN)?
**A.** Its GI50 is 10.2 µM (inactive).

**Q.** And the GI50 (HCT-116)?
**A.** The GI50 was 27.9 µM (inactive).

**Q.** And the GI50 (SK-MEL-5)?
**A.** The GI50 was 18.6 µM (inactive).

**Q.** And the GI50 (NCI/ADR-RES)?
**A.** The GI50 was > 31.6 µM (inactive).

**Q.** What about the GI50 (UACC-257) of the same molecule?
**A.** Its GI50 is > 31.6 µM (inactive).

**Q.** What about the GI50 (KM12) of the same molecule?
**A.** The GI50 was > 31.6 µM (inactive).

**Q.** What about the GI50 (RXF 393) of the same molecule?
**A.** The GI50 was > 10 µM (inactive).

**Q.** And the GI50 (RPMI-8226)?
**A.** The GI50 was 14.2 µM (inactive).

**Q.** And the GI50 (Malme-3M)?
**A.** Its GI50 is > 10 µM (inactive).

**Q.** And the GI50 (CCRF-CEM)?
**A.** Its GI50 is 20.7 µM (inactive).

**Q.** What does the source list for `O=C1OC(CN2CCN(c3ccccc3)CC2)CN1C(=S)Nc1ccccc1` (stereo not drawn)?
**A.** GI50 (SNB-19): > 100 µM (inactive); GI50 (MOLT-4): > 100 µM (inactive); GI50 (MCF7): > 100 µM (inactive); GI50 (EKVX): > 100 µM (inactive); GI50 (COLO 205): > 100 µM (inactive); GI50 (CAKI-1): > 100 µM (inactive); GI50 (HCT-15): > 100 µM; GI50 (786-0): > 100 µM (inactive); GI50 (HCC 2998): > 100 µM (inactive); GI50 (LOX IMVI): > 100 µM (inactive); GI50 (SF-539): > 100 µM (inactive); GI50 (OVCAR-4): > 100 µM (inactive); GI50 (IGROV-1): > 100 µM (inactive); GI50 (PC-3): 84.7 µM (inactive); GI50 (SF-295): > 100 µM (inactive); GI50 (U-251): > 100 µM (inactive); GI50 (HOP-92): > 100 µM (inactive); GI50 (HOP-62): > 100 µM (inactive); GI50 (HT-29): 35.1 µM (inactive); GI50 (BT-549): > 100 µM (inactive); GI50 (SF-268): > 100 µM (inactive); GI50 (UACC-62): > 100 µM (inactive); GI50 (SK-MEL-2): 31.8 µM (inactive); GI50 (A498): > 100 µM (inactive); GI50 (SW-620): > 100 µM (inactive); GI50 (MDA-MB-435): > 100 µM (inactive); GI50 (SR): > 100 µM (inactive); GI50 (SN12C): > 100 µM (inactive); GI50 (T47D): > 100 µM (inactive); GI50 (UO-31): > 100 µM (inactive); GI50 (M14): > 100 µM (inactive); GI50 (TK-10): > 100 µM (inactive); GI50 (SK-OV-3): > 100 µM (inactive); GI50 (MDA-MB-231): > 100 µM (inactive); GI50 (SNB-75): 65.6 µM (inactive); GI50 (NCI-H226): > 100 µM (inactive); GI50 (MDA-N): > 100 µM (inactive); GI50 (OVCAR-5): > 100 µM (inactive); GI50 (A549): > 100 µM (inactive); GI50 (DU-145): > 100 µM (inactive); GI50 (OVCAR-8): > 100 µM (inactive); GI50 (OVCAR-3): > 100 µM (inactive); GI50 (Hs-578T): > 100 µM (inactive); GI50 (NCI-H23): > 100 µM (inactive); GI50 (NCI-H522): > 100 µM (inactive); GI50 (HL-60): > 100 µM (inactive); GI50 (K562): 61.4 µM (inactive); GI50 (SK-MEL-28): > 100 µM (inactive); GI50 (NCI-H460): 23.8 µM (inactive); GI50 (ACHN): > 100 µM (inactive); GI50 (HCT-116): > 100 µM (inactive); GI50 (SK-MEL-5): > 100 µM (inactive); GI50 (NCI/ADR-RES): > 100 µM (inactive); GI50 (UACC-257): > 100 µM (inactive); GI50 (KM12): 88.3 µM (inactive); GI50 (RXF 393): > 100 µM (inactive); GI50 (RPMI-8226): 92.5 µM (inactive); GI50 (Malme-3M): > 100 µM (inactive); GI50 (CCRF-CEM): > 100 µM (inactive)
